Experimental findings from US20210238224A1, “METHOD OF CONSTRUCTING PROTAC BY USING DOUBLE TARGETS” (THE FIRST AFFILIATED HOSPITAL OF SUN YAT-SEN UNIVERSITY, priority 2018, published 2021) are described below.

For this test, the target named is T1, Smad3 (Rattus norvegicus, UniProt P84025).
T1 construct: endogenous in cells; host or cells: NRK49F rat kidney fibroblasts, stimulated with TGF-β1
Briefly: Western blot of Smad3 degradation in TGF-β1-stimulated rat kidney fibroblasts. It counts as cell-based. To be noted: NRK49F cells, 48 hours, FIGS. 6(A), 6(B). As to the method:
Rat kidney fibroblasts (NRK49F cell line) are cultured in vitro, passage 1:3 or 1:4 to six-well plates before cell fusion, and are divided into a TGF-β1 control group (TGF-β1 10 ng/ml), a PROTAC-PEG action group (TGF-β1 10 ng/ml+PROTAC-PEG of different concentrations: 1, 5, 25, 125 nM), and a PROTAC-butanedioic acid action group (TGF-β1 10 ng/ml+PROTAC-butanedioic acid of different concentrations: 1, 5, 25, 125 nM); the cells are lysed after 48 hours of culture and are used for Western blot.

T1 sequence (P84025 whole entry): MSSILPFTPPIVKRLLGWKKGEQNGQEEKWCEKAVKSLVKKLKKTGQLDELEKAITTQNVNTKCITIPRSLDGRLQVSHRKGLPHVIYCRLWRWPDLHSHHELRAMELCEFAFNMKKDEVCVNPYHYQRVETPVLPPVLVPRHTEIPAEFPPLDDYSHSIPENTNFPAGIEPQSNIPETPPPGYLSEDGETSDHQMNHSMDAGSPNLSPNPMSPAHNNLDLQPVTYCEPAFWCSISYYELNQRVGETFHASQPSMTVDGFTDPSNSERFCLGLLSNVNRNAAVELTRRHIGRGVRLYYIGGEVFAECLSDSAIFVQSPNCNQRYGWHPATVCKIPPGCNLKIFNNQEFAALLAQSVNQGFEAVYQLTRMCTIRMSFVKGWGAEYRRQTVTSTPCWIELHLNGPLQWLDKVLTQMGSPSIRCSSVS

For `C[C@@H](NC(=O)[C@@H]1C[C@@H](O)CN1C(=O)[C@@H](NC(=O)CCC(=O)NC(c1cccnc1)c1cc2ccccc2o1)C(C)(C)C)c1ccc(-c2cc(N)cs2)cc1` (stereo partly drawn) [PROTAC-butanedioic acid], the “degradation of target protein Smad3 (Western blot)” value (TGF-β1 10 ng/ml + PROTAC 1, 5, 25, 125 nM) is on record as “degrades the target protein Smad3 in a concentration-dependent manner”. Under “TGF-β1 10 ng/ml”, the “Smad3-degrading activity compared with PROTAC-PEG” value was “significantly higher than that of PROTAC-PEG” and the “effective concentration for Smad3 degradation” value amounted to 25 nM.
